Results reported in patent US7750165B2, “Metaxalone polymorphs” (Fresenius Kabi Oncology Limited, priority 2005, dated 2010).
Several values for one entry are separate records, joined by “and”; a condition that tells them apart may be missing. Equal values may be shown once. Read-outs that look alike come from different tables or passages of the source.

Assay: Bioavailability and pharmacokinetic study of crystalline Forms A and B of metaxalone, oral suspension, plasma by HPLC
Type: in vivo, female wistar rat
Parameters: AUCin / AUCt / AUCt Mean / AUCin Mean: unit not given here
Procedure: A study was undertaken to compare the bioavailability and pharmacokinetic profile of the two crystalline Forms A and B of metaxalone in female wistar rat under fasting condition. A suspension of metaxalone form A and Form B having a concentration of 15.0 mg/ml was prepared using 0.1% Tween-80 in 0.25% carboxy methyl cellulose (CMC). The formulation was used for dosing as such without any further dilution.
Twelve rats were taken, out of which six rats were administered form A crystals of Metaxalone and other six rats were adminstered form B crystals of Metaxalone, in different injection volumes based on body weight, resulting in dose of 150 mg/kg. A total thirteen (0.6 ml) blood samples were collected from each rat into prelabeled tubes containing EDTA solution, by retro-orbital bleeding under mild ether anesthesia. The blood samples were withdrawn at time points of 0 (prior to dosing), 15, 30 mins, 1, 1.5, 2.0, 4.0, 6.0, 8.0, 10.0, 12.0, 24 and 48 hrs post administration. The samples were centrifuged at 4000 rpm for 10 mins at room temperature. Seperated plasma samples were transferred into prelabeled tubes and stored upright in cyrobox. These cyroboxes were then transfered into a deep freezer maintained at −20° C. for the final storage until the completion of analysis.
HPLC system of Shimadzu LC—2010CHT series equipped with shimadzu UV-VIS detector, analytical column YMC Pack ODS C-18, 5 μm, (150×4.6 mm) and a data acquisition system (LC solution software) were used for the quantitative determination of metaxalone in rat plasma.
The results were plotted using the conventional AUC method to calculate pharmacokinetic ters (Cmax, Tmax and AUC (area under the curve, a measure of total bioavailability). The pharmacokinetic results for the crystalline form A and B are summarized in Table-V

[1] = Form A relative to Form B, per rat number 1-6, oral 150 mg/kg, 150 mg/kg
[2] = Mean of N=6 rats, female wistar rat, oral 150 mg/kg, 150 mg/kg
[3] = female wistar rats, fasting, oral 150 mg/kg, plasma, Mean ± SD, 150 mg/kg
[4] = female wistar rats, fasting, oral 150 mg/kg, plasma, Mean ± SD, listed as Metaxalone- Form A, 150 mg/kg
[5] = female wistar rats, oral 150 mg/kg
[6] = female, Wistar, rat, plasma, po, 150 mg/kg, female wistar rats, fasting, oral 150 mg/kg, Mean ± SD
[7] = individual rats 1-6, female wistar rat, oral 150 mg/kg, 150 mg/kg
[8] = individual rats 1-6, female wistar rat, oral 150 mg/kg, 150 mg/kg, in h
[9] = individual rats 1-6, female wistar rat, oral 150 mg/kg, 150 mg/kg, in µg/mL
[10] = female wistar rats, fasting, oral 150 mg/kg, plasma, Mean ± SD (second Table IV), listed as Metaxalone- Form B, 150 mg/kg
[11] = female wistar rats, fasting, oral 150 mg/kg, plasma, Mean ± SD, listed as Metaxalone- Form B, 150 mg/kg

With `Cc1cc(C)cc(OCC2CNC(=O)O2)c1` (single isomer, unassigned) [Form A, 5-(3′,5′-dimethylphenoxy)methyl-2-oxazolidinone] as the compound, how does the “AUCin A/B %” value [1] read?
Its value is 328.5% and 110.5% and 69.0% and 37.7% and 291.3% and 120.9%.

What about the “AUCt A/B %” value [1] of the same compound?
Its value is 196.7% and 84.4% and 73.7% and 40.4% and 255.3% and 88.1%.

What about the “Cmax A/B %” value [1] of the same compound?
Its value is 111.2% and 77.4% and 89.4% and 90.9% and 103.7% and 85.0%.

What about the “AUCin Mean” value [2] of the same compound?
Its value is 451.461.

And the Clobs [3]?
The Clobs was 6.164 ± 2.122 mL/min/kg.

And the Clobs (female wistar rats, fasting, oral 150 mg/kg, plasma, Mean ± SD, listed as Form-A, 150 mg/kg)?
Its Clobs is 6.164 ± 2.122 mL/min/kg.

And the Clobs [4]?
The Clobs was 6.164 ± 2.122 mL/min/kg.

What about the Lambda z [4] of the same compound?
Its Lambda z is 0.119 ± 0.07 h⁻¹.

What about the Vzobs [4] of the same compound?
Its Vzobs is 3.46602 ± 0.9788 L/kg.

And the “bioavailability, based on the observed Cmax values” [5]?
The value was “bioavailable”.

What about the AUC(0-t) (female, Wistar, rat, plasma, po, 150 mg/kg, Mean of N=6 rats, female wistar rat, oral 150 mg/kg, read-out: AUCt Mean) of the same compound?
The AUC(0-t) was 325 µg·h/mL.

And the Cmax (female, Wistar, rat, plasma, po, 150 mg/kg, Mean of N=6 rats, female wistar rat, oral 150 mg/kg, read-out: Cmax Mean)?
Its Cmax is 37700 ng/mL.

And the Tmax (female, Wistar, rat, plasma, po, 150 mg/kg, Mean of N=6 rats, female wistar rat, oral 150 mg/kg, read-out: Tmax Mean)?
The Tmax was 1.5 h.

And the AUC(0-inf) [6]?
The AUC(0-inf) was 451 ± 166 µg·h/mL.

What about the MRT last [6] of the same compound?
Its MRT last is 5.49 ± 1.8 h.

What about the half-life [6] of the same compound?
The half-life was 7.25 ± 2.9 h.

What about the AUC(0-inf) (female, Wistar, rat, plasma, po, 150 mg/kg, female wistar rats, fasting, oral 150 mg/kg, Mean ± SD (second Table IV)) of the same compound?
The AUC(0-inf) was 451 ± 166 µg·h/mL.

And the AUC(0-t) (female, Wistar, rat, plasma, po, 150 mg/kg, female wistar rats, fasting, oral 150 mg/kg, plasma, Mean ± SD (second Table IV), read-out: AUClast)?
The AUC(0-t) was 325 ± 110 µg·h/mL.

And the AUC(0-t) (female, Wistar, rat, plasma, po, 150 mg/kg, female wistar rats, fasting, oral 150 mg/kg, plasma, Mean ± SD, read-out: AUClast)?
Its AUC(0-t) is 325 ± 110 µg·h/mL.

And the Cmax (female, Wistar, rat, plasma, po, 150 mg/kg, female wistar rats, fasting, oral 150 mg/kg, plasma, Mean ± SD, read-out: Cmax)?
The Cmax was 37700 ± 4100 ng/mL.

And the Tmax (female, Wistar, rat, plasma, po, 150 mg/kg, female wistar rats, fasting, oral 150 mg/kg, plasma, Mean ± SD, read-out: Tmax)?
The Tmax was 1.5 ± 0.3 h.

What about the MRT last (female, Wistar, rat, plasma, po, 150 mg/kg, female wistar rats, oral 150 mg/kg, mean ± SD, unit inferred) of the same compound?
Its MRT last is 5.49 ± 1.8 h.

And the Cmax (female, Wistar, rat, plasma, po, 150 mg/kg, individual rats 1-6, female wistar rat, oral 150 mg/kg, read-out: Cmax)?
The Cmax was 43100 ng/mL.

What about the AUCin [7] of the same compound?
Its AUCin is 646.72 and 398.52 and 380.50 and 267.03 and 667.12 and 348.88.

And the AUCt [7]?
Its AUCt is 371.39 and 259.03 and 283.70 and 252.67 and 530.31 and 251.62.

And the Tmax [8]?
Its Tmax is 2.00 and 1.00.

And the Cmax [9]?
The Cmax was 33.77 and 38.46 and 39.32 and 39.57 and 31.90.

With `Cc1cc(C)cc(OCC2CNC(=O)O2)c1` (single isomer, unassigned) [Form B, 5-(3′,5′-dimethylphenoxy)methyl-2-oxazolidinone] as the compound, how does the “AUCt Mean” value [2] read?
The value was 333.329.

What about the “Tmax Mean” value (Mean of N=6 rats, female wistar rat, oral 150 mg/kg, 150 mg/kg, in h) of the same compound?
The value was 2.083.

And the “Cmax Mean” value (Mean of N=6 rats, female wistar rat, oral 150 mg/kg, 150 mg/kg, in µg/mL)?
Its value is 40.735.

And the AUCinf [10]?
The AUCinf was 389.07 ± 200.6 µg·h/mL.

What about the AUClast [10] of the same compound?
The AUClast was 333.32 ± 159.9 µg·h/mL.

And the AUCinf [3]?
Its AUCinf is 389.07±200.6 hrμg/ml.

And the AUClast [3]?
Its AUClast is 333.32±159.9 hrμg/ml.

And the Clobs [3]?
The Clobs was 7.8787 ± 3.578 mL/min/kg.

What about the Cmax [3] of the same compound?
Its Cmax is 40730 ± 2800 ng/mL.

What about the “Half Life” value [3] of the same compound?
The value was 4.49 ± 1.7 h.

What about the MRTlast [3] of the same compound?
The MRTlast was 5.50 ± 1.8 h.

What about the Tmax [3] of the same compound?
Its Tmax is 2.08 ± 1.4 h.

What about the Clobs [11] of the same compound?
Its Clobs is 7.8787 ± 3.578 mL/min/kg.

What about the Lambda z [11] of the same compound?
Its Lambda z is 0.172 ± 0.05 h⁻¹.

What about the Vzobs [11] of the same compound?
Its Vzobs is 2.65418 ± 0.4222 L/kg.

What about the “bioavailability, based on the observed Cmax values” [5] of the same compound?
The value was “bioavailable”.

What about the MRTlast (female wistar rats, oral 150 mg/kg, plasma, mean ± SD, unit not given, 150 mg/kg, in h) of the same compound?
Its MRTlast is 5.50±1.8.

And the AUC (female, Wistar, rat, plasma, po, 150 mg/kg, Mean of N=6 rats, female wistar rat, oral 150 mg/kg, read-out: AUCin Mean)?
The AUC was 389 µg·h/mL.

What about the Cmax (female, Wistar, rat, plasma, po, 150 mg/kg, female wistar rats, oral 150 mg/kg, plasma, mean ± SD, no unit printed for this value, read-out: mean Cmax) of the same compound?
Its Cmax is 40700 ± 2800 ng/mL.

What about the AUCin [7] of the same compound?
The AUCin was 196.86 and 360.78 and 551.70 and 707.50 and 229.04 and 288.56.

What about the AUCt [7] of the same compound?
Its AUCt is 188.83 and 306.89 and 384.99 and 626.04 and 207.73 and 285.51.

What about the Tmax [8] of the same compound?
Its Tmax is 1.00 and 4.00 and 1.50.

What about the Cmax [9] of the same compound?
Its Cmax is 38.75 and 43.65 and 43.04 and 43.27 and 38.16 and 37.54.
